These results are taken from patent US8148392B2, “2-indolyl imidazo [4,5-d] phenanthroline derivatives and their use in the treatment of cancer” (Lorus Therapeutics Inc., priority 2005, dated 2012).

“Also recorded” adds a separate entry of the source.

Assay [1] concerns KLF4. As to the kind of experiment: KLF4 gene expression by RT-PCR, HT-29. The class given is cell-based, human. As to conditions: for KLF4 expression change with zinc supplement: HT-29, 1 μM compound plus 35 μM ZnCl2, 16 hr; for KLF4 gene expression, change: HT-29, 1 μM, in words; for KLF4 (gene fold increase): HT-29, relative to vehicle control as 1. The protocol:
To determine whether compounds of Formula I can chelate zinc in cells, the effect of compound 3 on the expression level of a zinc-regulated gene, metallothionein 1A (MT1A), in human colon carcinoma HT-29 cells, was determined. HT-29 cells, 1×10^6 cells in 10 mL volume of the growth medium were seeded in 100 mm dishes and incubated overnight at 37° C. The medium was removed and replaced with the growth medium containing 35 μM ZnCl2, 1 μM or 4 μM TPEN (NNNN-tetrakis(2-pyridyl-methyl)ethylenediamine), or 1 μM or 4 μM compound 3, or 0.1% DMSO vehicle control. After incubation for 16 hours, the cells were detached by trypsinization, collected by centrifugation and washed once with PBS. Total RNA was extracted by using TRIZOL (Invitrogen, Life Technologies, Carlsbad, Calif.), following manufacturer's instruction, and the level of MT1A mRNA was measured by real time PCR using the comparative CT method as follows. First strand cDNA was synthesized from 200 ng total RNA in Biometra Tpersonal Thermal Cycler (Abgene, UK), using pd(N)6 random hexamer (Amersham Biosciences, Piscataway, N.J.) and SuperScript™ II Reverse Transcriptase kit (Invitrogen) by following manufacturer's protocol. Real-time PCR was performed in ABI Prism 7000 Sequence Detection System (Applied Biosystems Inc., ABI, Foster City, Calif.), using 5 μL of cDNA synthesized by above-mentioned procedure and respective TaqMan® Gene Expression Assays (ABI) by following ABI TaqMan® Universal PCR master mix protocol.
The ability of compounds of Formula I to modulate the mRNA level of a transition metal-regulated tumour suppressor gene was determined in vitro as follows. Compound 3 was tested to determine its ability to increase the expression of zinc-regulated tumour suppressor KLF4 mRNA in colon carcinoma HT-29 cells. […] HT-29 cells were incubated for 16 hours with DMSO as a vehicle control, 35 μM ZnCl2, 1 μM or 4 μM of compound 3, or 1 μM or 4 μM TPEN for 16 hours and mRNA was extracted from the cells as described in Example 19. The expression of KLF4 mRNA was analyzed by real-time polymerase chain reaction using the comparative CT method also as described in Example 19. Compound 3 induced the expression of KLF4 mRNA (approximately 8-fold) in HT-29 cells compared with HT-29 cells treated with vehicle alone (See FIG. 8).
(§1) Gene expression levels of KLF4, induced by compounds of Formula I, were also examined on various cancer cell types by RT-PCR. Fold changes in KLF4 in compound-treated cells were expressed relative to KLF4 expression in vehicle control-treated cells of respective cell type as “1”. […] Additionally, xenografts of MDA-MB-435 implanted into mammary fat pads of female SCID mice have shown immunohistochemical staining consistent with melanocytic origin (Ellison G, Klinowska T, Westwood R F, Docter E, French T, Fox J C. (2002) Mol Pathol. 55(5): 294-299). The breast cancer cell line MDA-MB-435 may be expected to function differently than the other breast cancer cell lines.
The change in gene expression of KLF4 upon zinc depletion following compound 3 treatment was determined by RT-PCR as follows. HT-29 cells were treated with 1 μM compound 3 for the indicated time (FIG. 39A) or HT-29 cells were treated with 1 μM compound 3, 35 μM ZnCl2 or compund 3 and ZnCl2 together for 16 hr (FIG. 39B). Total RNA was extracted and gene expression level was determined by RT-PCR.
Fold change in KLF4 gene expression was presented relative to KLF4 expression in non-specific siRNA-transfected cells treated with vehicle control.

The test system of assay [2] is MTF-1. In words: MTF-1 mRNA in HT-29 tumour xenografts, RT-PCR. The class given is in vivo, CD-1 athymic nude mice. To be noted: HT-29 xenograft, versus vehicle. The protocol:
(§2) Correlation between zinc-sensitive transcription factor MTF-1 and a cell cycle regulator Cyclin D1 expression in HT-29 colon cancer xenograft tissues is shown in FIG. 30. Based on the presence of putative MTF-1-binding DNA sequences in Cyclin D1 gene promoter region (shown in FIG. 30A), expression levels of MTF-1 and Cyclin D1 in xenograft tissues were examined by RT-PCR, using tissue RNA extract.
The tumor regression efficacy of compound 3 was assessed in compound 3-treated HT-29-transplanted athymic mice (FIG. 54A), and correlated with gene expressions of MTF-1, KLF4 and Cyclin D1 in HT-29 xenograft tissues (FIG. 54B). CD-1 athymic nude mice (4 per group) were injected subcutaneously with HT-29 cells (3×10^6 cells in 0.1 mL PBS). At 5 days after tumor cell inoculation, the mice were intra-peritoneally injected with 200 μL vehicle control or 100 mg/kg compound 3, for 5 days followed by 10 days interval, for 2 cycles (day 5 to 9 as a first cycle injection and day 20 to 24 as a second cycle injection). The tumor size was measured during the course of treatment using calipers (FIG. 54A). The mice were sacrificed at 34 days after tumor cell inoculation. The tumor tissues were excised, frozen immediately and stored at −80° C. until RNA extraction and gene expression was analyzed by RT-PCR (FIG. 54B). […]

Assay [3] deals with Cyclin D1. As to the kind of experiment: Cyclin D1 mRNA in HT-29 tumour xenografts, RT-PCR. To be noted: HT-29 xenograft, versus vehicle. The class given is in vivo, CD-1 female nude mice. As to the method: The ability of compound 3 to modulate expression of Cyclin D1 was determined using the HT-29 colon tumour xenograft model as described in Example 26. The expression of Cyclin D1 mRNA was analyzed by real-time polymerase chain reaction as described in Example 30. […] The results of this experiment combined with the results described for the effect of compound 3 in vivo on KLF4 and P21 expression as described in Examples 30 and 31 are shown in FIG. 20.
as §2
To examine the effect of compound 3-mediated changes in KLF4 and Cyclin D1 expressions in vivo, the expressions of respective genes in xenograft tissues of vehicle control (Lutrol) and compound 3-treated HT-29 colon cancer cell-transplanted mice were analyzed by RT-PCR (FIG. 46). Briefly, KLF4 and Cyclin D1 gene expression in HT-29 xenograft tissues after 14 days treatment with compound 3 was measured as follows. The mice subcutaneously transplanted with HT-29 cells were treated with vehicle control (administerd i.p.) or 100 mg/kg compound 3 (administered i.p.) for 14 days (n=6 in each group). Total RNA was extracted and gene expression level was determined by RT-PCR. KLF4 and Cyclin D1 gene expressions were normalized with β-actin gene expression in the same sample. […]
The tumor regression efficacy of compound 3 was assessed in compound 3-treated HT-29-transplanted athymic mice (FIG. 54A), and correlated with gene expressions of MTF-1, KLF4 and Cyclin D1 in HT-29 xenograft tissues (FIG. 54B). […] The tumor size was measured during the course of treatment using calipers (FIG. 54A). […] The tumor tissues were excised, frozen immediately and stored at −80° C. until RNA extraction and gene expression was analyzed by RT-PCR (FIG. 54B). […]

The test system of assay [4] is KLF4. As to the kind of experiment: KLF4 gene expression by RT-PCR, CCRF-CEM. The class given is cell-based, human. As to conditions: relative to vehicle control as 1.
Text: as §1

For the compound `Cc1[nH]c2ccccc2c1-c1nc2c3cccnc3c3ncccc3c2[nH]1` [Compound 3], the “KLF4 expression change with zinc supplement” value (from here on “KLF4 expression change”) in assay [1] is on record as “reversed by addition of zinc supplement”. Besides, in assay [1], the “KLF4 gene expression, change” value was “Time-dependent increase in KLF4; also recorded: increased expression of KLF4”. Further, the “induction of KLF4 mRNA” value in assay [1] (HT-29, 16 hours, 1 μM or 4 μM, versus vehicle) is listed as “approximately 8 fold”. For the same compound, the “KLF4 (gene fold increase)” value in assay [1] is 6.5 fold; in assay [4] it was 28.05 fold. Also, the “KLF4 gene expression after MTF-1 gene knock-down by siRNA” value in assay [1] (HT-29 transfected with MTF-1 siRNA) was “still increased”. Further, in assay [2] (listed as compound 3), the “MTF-1 expression in tumour xenografts” value is “Decreased MTF-1 expression; also recorded: decrease in MTF-1 and Cyclin D1 gene expressions”. In addition, the “Cyclin D1 expression in tumour xenografts” value in assay [3] is “consistently reduced the expression of Cyclin D1”; in assay [3] (listed as compound 3), “decreased Cyclin D1 expression; also recorded: decrease in MTF-1 and Cyclin D1 gene expressions”.
For the compound `Cc1[nH]c2ccc(F)cc2c1-c1nc2c3cccnc3c3ncccc3c2[nH]1` [Compound 7], in assay [1], the “KLF4 expression change” value is “reversed by addition of zinc supplement”; the “KLF4 gene expression, change” value was “increased expression of KLF4”; the “KLF4 (gene fold increase)” value is 8.66 fold. For the same compound, the “MTF-1 expression in tumour xenografts” value in assay [2] was “Decreased MTF-1 expression”. Moreover, in assay [3], the “Cyclin D1 expression in tumour xenografts” value is “decreased Cyclin D1 expression”. Besides, the “KLF4 (gene fold increase)” value in assay [4] came out at 48.5 fold.
With `CCc1cccc2c(-c3nc4c5cccnc5c5ncccc5c4[nH]3)c(C(C)(C)C)[nH]c12` [Compound 64], in assay [1], the “KLF4 expression change” value is recorded as “reversed by addition of zinc supplement”; the “KLF4 gene expression, change” value is recorded as “increased expression of KLF4”; the “KLF4 (gene fold increase)” value stood at 5.96 fold. For the same compound, the “KLF4 (gene fold increase)” value in assay [4] is on record as 73.77 fold.
